Here are results for twelve molecules from ChEMBL document CHEMBL1201862, “PubChem BioAssay data set” (2004).

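In this assay, cells in 96-well plates receive the compound at five concentrations for 48 hours. Endpoints are linearly interpolated between the surrounding concentrations. GI50 = concentration required for 50% inhibition of growth.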 Activity calls are given as the source filed them. Rule as the data show it: active = GI50 up to about 1.1 µM and inactive = higher. Where only a bound is given, the exact number is not on record here.

What all share (experiment): NCI anticancer screen, dose series, 48 h
Experiment [1] relates to BT-549.
Experiment [2] deals with OVCAR-4.
Experiment [3] deals with SK-MEL-2.
In experiment [4] the test system is TK-10.
Experiment [5] deals with UACC-257.
Experiment [6] has as its system UACC-62.
In experiment [7] the test system is PC-3.
In experiment [8] the test system is RPMI-8226.
Experiment [9] concerns Malme-3M.
The test system of experiment [10] is SK-OV-3.
Experiment [11] has as its system NCI-H460.
In experiment [12] the test system is CAKI-1.
The test system of experiment [13] is SF-268.
Experiment [14] relates to HOP-62.
The test system of experiment [15] is HCC 2998.
Experiment [16] deals with HOP-92.
The subject of experiment [17] is LOX IMVI.
Experiment [18] relates to HT-29.
The test system of experiment [19] is SNB-75.
The test system of experiment [20] is NCI-H522.

Take `C=CCN1C(=O)CC2[C@@H]3CCc4cc(O)ccc4C3CC[C@]2(C)C1=O` (stereo partly drawn): the GI50 in experiment [1], in [2], in experiment [3], in experiment [4], in [5] and in experiment [6] was > 10 µM (inactive) each time. Further, the GI50 in experiment [7], in [8], in [9], in experiment [10], in experiment [11] and in experiment [12] was > 10 µM (inactive) each time. For the same molecule, the GI50 in experiment [13], in experiment [14], in experiment [15], in experiment [16], in [17] and in [18] was > 10 µM (inactive) in each case.
In the case of `COc1cc(-c2nc(SC)nc3c2CCc2ccccc2-3)cc(OC)c1OC`, the GI50 in [1] is > 100 µM (inactive); in experiment [2], 65 µM (inactive); in experiment [3] it was > 100 µM (inactive); in [5] it was 90.8 µM (inactive); in [6], 82.4 µM (inactive); in [7] it was 34.5 µM (inactive). Moreover, the GI50 in experiment [8] is 25.8 µM (inactive); in experiment [10], > 100 µM (inactive); in experiment [13], 91.2 µM (inactive); in experiment [14], > 100 µM (inactive); in [19], > 100 µM (inactive); in experiment [15], > 100 µM (inactive). In addition, the results for the GI50 in experiment [16], in experiment [17] and in experiment [18] were > 100 µM (inactive), 91.8 µM (inactive) and 50.1 µM (inactive), respectively.
In the case of `CCC(=O)/C(=C\I)c1ccccc1`, the GI50 is 1.79 µM (inactive) in experiment [1]; 2.1 µM (inactive) in [3]; 15 µM (inactive) in experiment [4]; 3.55 µM (inactive) in experiment [5]; 2.49 µM (inactive) in experiment [6]; 3.01 µM (inactive) in experiment [7]. In addition, the GI50 in experiment [8] was 3.33 µM (inactive); in [9], 1.67 µM (inactive); in experiment [10], 16.6 µM (inactive); in [11], 9.86 µM (inactive); in experiment [13] it was 16.7 µM (inactive); in experiment [14], 21 µM (inactive). The GI50 in experiment [19] was 1.52 µM (inactive); in experiment [16] it was 2.16 µM (inactive); in experiment [17], 1.27 µM (inactive); in experiment [18], 0.931 µM (active).
As to `CCOc1ccc(N/C(=C(/C(Cl)=C(/Cl)NC(C)(C)C)[N+](=O)[O-])n2nnc3ccccc32)cc1`, the GI50 in experiment [1] was 17.9 µM (inactive); in experiment [2], 25.6 µM (inactive); in experiment [3], 31.6 µM (inactive); in experiment [5], 53.7 µM (inactive); in experiment [6], 22.8 µM (inactive); in [7] it was 28.7 µM (inactive). Also, the GI50 in experiment [8] is 23.9 µM (inactive); in [9] it was 15.8 µM (inactive); in [10], 59.8 µM (inactive); in experiment [11], 76.9 µM (inactive); in [12] it was 19.3 µM (inactive); in experiment [13] it was 16.7 µM (inactive). In addition, the GI50 in experiment [14] was 70 µM (inactive); in experiment [19] it was 24.2 µM (inactive); in [15], > 100 µM (inactive); in experiment [18], 35.1 µM (inactive).
With `CC(C)(O)[C@@H]1CC[C@](C)(C2[C@@H](O)C[C@@]3(C)C4C[C@H](OC5OCC(O)C(O)C5O)[C@H]5C(C)(C)[C@@H](OC6OCC(O)C(O)C6OC6OCC(O)C(O)C6O)CC[C@@]56C[C@@]46CC[C@]23C)O1` (stereo partly drawn), the GI50 in [1], in [2], in [3], in [20], in experiment [6] and in experiment [7] was > 100 µM (inactive) throughout. In addition, the GI50 in experiment [8], in [10], in [11], in experiment [12], in [13] and in [14] was > 100 µM (inactive) each time. The GI50 in experiment [19], in experiment [15] and in experiment [18] was > 100 µM (inactive) each time.
On to `NNC1=NC(=O)NC(=O)C1`, for which the GI50 in [1], in experiment [2], in experiment [3], in [20], in [4] and in experiment [5] was > 100 µM (inactive) in each case. Also, the GI50 in experiment [6], in experiment [7], in experiment [8], in experiment [9], in experiment [10] and in [11] was > 100 µM (inactive) in each case. Further, the GI50 is > 100 µM (inactive) in [12]; > 100 µM (inactive) in experiment [13]; > 100 µM (inactive) in experiment [14]; > 100 µM (inactive) in experiment [19]; 66.4 µM (inactive) in [16]; > 100 µM (inactive) in experiment [17]. The GI50 in [18] is > 100 µM (inactive).
As for `CCOC(=O)CNC(=O)CNC(=O)CNC(=O)CNNc1c(OCc2ccccc2)c(=O)c1=O`, the GI50 in experiment [1], in experiment [2], in [3], in [20], in [4] and in experiment [5] was > 100 µM (inactive) in each case. Also, the GI50 in [6], in experiment [7], in [8], in experiment [9], in experiment [10] and in experiment [12] was > 100 µM (inactive) each time. Moreover, the GI50 in experiment [13], in experiment [14], in experiment [19], in [15] and in experiment [18] was > 100 µM (inactive) in each case.
Regarding `N#Cc1nn(C(N)=O)c(N)c1C#N`, the GI50 in experiment [1], in [2], in [3], in experiment [20], in experiment [4] and in experiment [5] was > 100 µM (inactive) in each case. Further, the GI50 in [6], in experiment [7], in experiment [10], in experiment [11], in experiment [12] and in [13] was > 100 µM (inactive) in each case. The GI50 in experiment [14], in [19], in [15] and in experiment [18] was > 100 µM (inactive) throughout.
`CC(SC(=S)N1CCOCC1)C(=O)Nc1nnc(-c2ccccc2)o1` (stereo not drawn): the GI50 in experiment [1] was > 100 µM (inactive); in experiment [2], > 100 µM (inactive); in [3] it was > 100 µM (inactive); in experiment [20], 39.8 µM (inactive); in [4], > 100 µM (inactive); in experiment [5], > 100 µM (inactive). Also, the GI50 in experiment [7] is 57.1 µM (inactive); in experiment [8], 43.1 µM (inactive); in experiment [9], > 100 µM (inactive); in experiment [10], > 100 µM (inactive); in experiment [11], > 100 µM (inactive); in [12], > 100 µM (inactive). Also, the GI50 was > 100 µM (inactive) in experiment [14], > 100 µM (inactive) in experiment [19], 71.4 µM (inactive) in experiment [17] and 61.1 µM (inactive) in experiment [18].
For `COC(=O)C1(C(=O)OC)N=C(C)OC1c1ccoc1` (stereo not drawn), the GI50 in experiment [1], in experiment [2], in experiment [3], in experiment [4], in [5] and in [6] was > 100 µM (inactive) throughout. For the same molecule, the GI50 in experiment [7], in experiment [8], in [10], in [11], in experiment [12] and in experiment [14] was > 100 µM (inactive) throughout. For the same molecule, the GI50 in [19], in [15], in experiment [16] and in [17] was > 100 µM (inactive) each time.
Turning to `CC(=O)Nc1ncc(Sc2ccccc2C(=O)O)s1`, the GI50 in experiment [1], in experiment [3], in experiment [4], in experiment [5], in experiment [6] and in [7] was > 100 µM (inactive) throughout. Further, the GI50 in experiment [8], in experiment [11], in experiment [12], in experiment [13], in [14] and in [19] was > 100 µM (inactive) throughout. Moreover, the GI50 in [16], in experiment [17] and in experiment [18] was > 100 µM (inactive) throughout.
For `CN(C)c1ccccc1CN1CCCN(Cc2ccccc2N(C)C)C1c1ccncc1`, the GI50 is 16.9 µM (inactive) in [1]; 15 µM (inactive) in experiment [2]; 17.8 µM (inactive) in [3]; 13 µM (inactive) in experiment [20]; 14.4 µM (inactive) in experiment [4]; 2.42 µM (inactive) in [5]. Also, the GI50 in [6] was 14.4 µM (inactive); in experiment [7] it was 17.9 µM (inactive); in experiment [8] it was 5.75 µM (inactive); in experiment [9], 10.4 µM (inactive); in experiment [10] it was 16.5 µM (inactive); in [11] it was 14 µM (inactive). The GI50 in experiment [12] is 16.7 µM (inactive); in experiment [13] it was 18.8 µM (inactive); in experiment [14], 15.4 µM (inactive); in experiment [19] it was 17.6 µM (inactive); in [16] it was 3.47 µM (inactive); in experiment [17] it was 13.6 µM (inactive). The GI50 in experiment [18] is 11.6 µM (inactive).
